# Activity calls are given as the source filed them. The rule behind the calls is not given here.
# Columns and labels:
# [1] = Toxicity against Galleria mellonella larva infected with Candida albicans SC5314 assessed as increase in survival rate at 8 mg/kg measured for 14 days; assay type: organism-based; details: in vivo, 336 h, time 14 day
# Candida albicans [2] = assay: Potentiation of antifungal activity against fluconazole-sensitive Candida albicans YEM12 overexpressing efflux pump MDR1 gene assessed as fold reduction in fluconazole MIC at 1 ug/ml incubated for 24 hrs by checkerboard broth microdilution assay; assay type: functional; details: dose 1 µg/ml
# Cryptococcus neoformans [3] = assay: Antifungal activity against Cryptococcus neoformans H99 assessed as fungal growth inhibition by broth microdilution assay; assay type: functional
# Cryptococcus neoformans [4] = assay: Antifungal activity against Cryptococcus neoformans 5-FC assessed as fungal growth inhibition by broth microdilution assay; assay type: functional
# [5] = tested on: Cryptococcus deuterogattii; assay: Antifungal activity against Cryptococcus gattii VGII R265 assessed as fungal growth inhibition by broth microdilution assay; assay type: functional, Cryptococcus gattii species complex
# Candida albicans [6] = assay: Antifungal activity against Candida albicans SC5314 assessed as fungal growth inhibition by broth microdilution assay; assay type: functional
# Candida albicans [7] = assay: Antifungal activity against Candida albicans CARG5 assessed as fungal growth inhibition by broth microdilution assay; assay type: functional
# Candida albicans [8] = assay: Antifungal activity against Candida albicans CA17 assessed as fungal growth inhibition by broth microdilution assay; assay type: functional
# Candida albicans [9] = assay: Antifungal activity against Candida albicans 28A assessed as fungal growth inhibition by broth microdilution assay; assay type: functional
# Candida parapsilosis = assay: Antifungal activity against Candida parapsilosis ATCC 22019 assessed as fungal growth inhibition by broth microdilution assay; assay type: functional; details: Lodderomyces parapsilosis
# Pichia kudriavzevii = assay: Antifungal activity against Candida krusei ATCC6258 assessed as fungal growth inhibition by broth microdilution assay; assay type: functional
# Mucor racemosus [10] = assay: Antifungal activity against Mucor racemosus MZ140 assessed as fungal growth inhibition by broth microdilution assay; assay type: functional
# Mucor racemosus [11] = assay: Antifungal activity against Mucor racemosus R715 assessed as fungal growth inhibition by broth microdilution assay; assay type: functional
# Aspergillus fumigatus [12] = assay: Antifungal activity against Aspergillus fumigatus AF293 assessed as fungal growth inhibition by broth microdilution assay; assay type: functional
# Aspergillus fumigatus [13] = assay: Antifungal activity against Aspergillus fumigatus shjt40 assessed as fungal growth inhibition by broth microdilution assay; assay type: functional
# [14] = Hemolytic activity in human RBC incubated for 1 hr by microplate reader method; assay type: toxicity, cell-based, Erythrocyte; details: red blood cells (erythrocytes)
# Candida albicans [15] = assay: Fungicidal activity against Candida albicans SC5314 assessed as fungal growth inhibition incubated for 24 hrs by resazurin dye based assay; assay type: functional
# [16] = Selectivity ratio of HC50 for hemolytic activity in human RBC to MIC for antifungal activity against Cryptococcus neoformans H99; assay type: toxicity; details: red blood cells (erythrocytes)
# [17] = Selectivity ratio of HC50 for hemolytic activity in human RBC to MIC for antifungal activity against Cryptococcus neoformans 5-FC; assay type: toxicity; details: red blood cells (erythrocytes)
# [18] = Selectivity ratio of HC50 for hemolytic activity in human RBC to MIC for antifungal activity against Cryptococcus gattii R265; assay type: toxicity; details: red blood cells (erythrocytes)
# [19] = Selectivity ratio of HC50 for hemolytic activity in human RBC to MIC for antifungal activity against Candida albicans SC5314; assay type: toxicity; details: red blood cells (erythrocytes)
# [20] = Selectivity ratio of HC50 for hemolytic activity in human RBC to MIC for antifungal activity against Candida albicans CARG5; assay type: toxicity; details: red blood cells (erythrocytes)
# [21] = Selectivity ratio of HC50 for hemolytic activity in human RBC to MIC for antifungal activity against Candida albicans CA17; assay type: toxicity; details: red blood cells (erythrocytes)
# [22] = Selectivity ratio of HC50 for hemolytic activity in human RBC to MIC for antifungal activity against Candida albicans 28A; assay type: toxicity; details: red blood cells (erythrocytes)
# [23] = Selectivity ratio of HC50 for hemolytic activity in human RBC to MIC for antifungal activity against Candida parapsilosis ATCC 22019; assay type: toxicity; details: red blood cells (erythrocytes)
# [24] = Selectivity ratio of HC50 for hemolytic activity in human RBC to MIC for antifungal activity against Candida krusei ATCC6258; assay type: toxicity; details: red blood cells (erythrocytes)
# [25] = Selectivity ratio of HC50 for hemolytic activity in human RBC to MIC for antifungal activity against Mucor racemosus MZ140; assay type: toxicity; details: red blood cells (erythrocytes)
# [26] = Selectivity ratio of HC50 for hemolytic activity in human RBC to MIC for antifungal activity against Mucor racemosus R715; assay type: toxicity; details: red blood cells (erythrocytes)
# [27] = Selectivity ratio of HC50 for hemolytic activity in human RBC to MIC for antifungal activity against Aspergillus fumigatus AF293; assay type: toxicity; details: red blood cells (erythrocytes)
# [28] = Selectivity ratio of HC50 for hemolytic activity in human RBC to MIC for antifungal activity against Aspergillus fumigatus shjt40; assay type: toxicity; details: red blood cells (erythrocytes)
# [29] = Cytotoxicity against HEK293T cells measured after 48 hrs by CCK8 assay; assay type: toxicity, cell-based, HEK-293T; details: human
# Candida albicans [30] = assay: Fungicidal activity against Candida albicans SC5314 at 8 times MIC50 measured after 10 mins by time-kill assay; assay type: functional, organism-based
# Cryptococcus neoformans [31] = assay: Fungicidal activity against Cryptococcus neoformans H99 at 4 times MIC50 measured after 10 to 25 mins by time-kill assay; assay type: functional, organism-based; details: time 10-25 min
# Candida albicans [32] = assay: Synergistic antifungal activity against fluconazole-resistant Candida albicans CARG5 assessed as fractional inhibitory concentration index incubated for 24 hrs by checkerboard broth microdilution assay; assay type: functional
# Candida albicans [33] = assay: Synergistic antifungal activity against fluconazole-resistant Candida albicans CARG5 assessed as reduction in fluconazole MIC at 1 microg/ml incubated for 24 hrs by checkerboard broth microdilution assay ( Rvb = > 128 microg/ml); assay type: functional; details: dose 1 µg/ml
# Candida albicans [34] = assay: Potentiation of antifungal activity against fluconazole-sensitive Candida albicans YEM13 overexpressing efflux pump MDR1 gene assessed as fold reduction in fluconazole MIC at 1 ug/ml incubated for 24 hrs by checkerboard broth microdilution assay; assay type: functional; details: dose 1 µg/ml
# Cell membrane [35] = assay: Induction of membrane permeabilization in Candida albicans SC5314 assessed as distruption of fungal cell membrane by measuring PI positive cells at 8 times MIC measured after 1 hrs by propidium iodide and DAPI staining based fluorescence microscopic analysis; assay type: subcellular
# Cell membrane [36] = assay: Induction of membrane permeabilization in Candida albicans SC5314 assessed as damage and rupture of fungal cell membrane at 8 times MIC incubated for 4 hrs by scanning electron microscopic analysis; assay type: subcellular
# Candida albicans [37] = assay: Induction of reactive oxygen species generation in Candida albicans SC5314 assessed as increase in fluorescence intensity incubated for 1 hr by DCF-DA staining based method; assay type: functional, organism-based; details: DDE = dose-dependent effect
# Candida albicans [38] = assay: Increase in intracellular fluconazole accumulation in fluconazole-resistant Candida albicans CARG5 at 1 ug/ml incubated for 1 hr by fluorescence based analysis; assay type: functional, cell-based; details: dose 1.0 µg/ml
# Candida albicans [39] = assay: Effect on efflux pump function in Candida albicans CARG5 assessed as increase in Nile red fluorescence at 1 ug/ml incubated for 1 hr by FACScan flow cytometer analysis; assay type: functional; details: dose 1.0 µg/ml
# Candida albicans [40] = assay: Antifungal activity against Candida albicans CARG5 infected in BALB/c mouse surgical wound model assessed as reduction in fungal burden smeared on wound at 8 mg/kg administered every 12 hrs for 48 hrs in presence of fluconazole; assay type: functional, organism-based
# Cryptococcus neoformans [41] = assay: Fungicidal activity against Cryptococcus neoformans H99 at 8 times of MIC measured after 10 to 25 mins by time-kill assay; assay type: functional, organism-based; details: time 10-25 min
structure (smiles),measurement,setting,value
CCCCCCCCCCCCCCCC(=O)N[C@@H](CCCN)C(=O)N[C@@H](Cc1ccccc1)CN(CC(N)=O)C(=O)CCN,Activity,[1],Non-Toxic
same,fold change (FC),Candida albicans [2],2
same,MIC50,Cryptococcus neoformans [3],2 µg/mL
same,MIC50,Cryptococcus neoformans [4],2 µg/mL
same,MIC50,[5],2 µg/mL
same,MIC50,Candida albicans [6],2 µg/mL
same,MIC50,Candida albicans [7],2 µg/mL
same,MIC50,Candida albicans [8],2 µg/mL
same,MIC50,Candida albicans [9],2 µg/mL
same,MIC50,Candida parapsilosis,2 µg/mL
same,MIC50,Pichia kudriavzevii,2 µg/mL
same,MIC50,Mucor racemosus [10],8 µg/mL
same,MIC50,Mucor racemosus [11],4 µg/mL
same,MIC50,Aspergillus fumigatus [12],4 µg/mL
same,MIC50,Aspergillus fumigatus [13],4 µg/mL
same,HC50 at 1 h,[14],> 250 µg/mL
same,MFC,Candida albicans [15],4 µg/mL
same,selectivity ratio,[16],≤ 125
same,selectivity ratio,[17],≤ 125
same,selectivity ratio,[18],≤ 125
same,selectivity ratio,[19],≤ 125
same,selectivity ratio,[20],≤ 125
same,selectivity ratio,[21],≤ 125
same,selectivity ratio,[22],≤ 125
same,selectivity ratio,[23],≤ 125
same,selectivity ratio,[24],≤ 125
same,selectivity ratio,[25],≤ 125
same,selectivity ratio,[26],≤ 125
same,selectivity ratio,[27],≤ 125
same,selectivity ratio,[28],≤ 125
same,IC50 at 48 h,[29],32.2 µg/mL
same,Activity,Candida albicans [30],Active
same,Activity,Cryptococcus neoformans [31],Active
same,fractional inhibitory concentration index (FICI),Candida albicans [32],<=0.5
same,MIC50,Candida albicans [33],1 µg/mL
same,fold change (FC),Candida albicans [34],8
same,Activity,Cell membrane [35],Active
same,Activity,Cell membrane [36],Active
same,Activity,Candida albicans [37],Dde
same,Activity,Candida albicans [38],Active
same,Activity,Candida albicans [39],Active
same,Activity,Candida albicans [40],Active
same,Activity,Cryptococcus neoformans [41],Active
OC(Cn1cncn1)(Cn1cncn1)c1ccc(F)cc1F [FLUCONAZOLE],Activity,[1],Non-Toxic
same,MIC50,Cryptococcus neoformans [3],4 µg/mL
same,MIC50,Cryptococcus neoformans [4],2 µg/mL
same,MIC50,[5],4 µg/mL
same,MIC50,Candida albicans [6],1 µg/mL
same,MIC50,Candida albicans [7],> 128 µg/mL
same,MIC50,Candida albicans [8],> 128 µg/mL
same,MIC50,Candida albicans [9],> 128 µg/mL
same,MIC50,Candida parapsilosis,2 µg/mL
same,MIC50,Pichia kudriavzevii,32 µg/mL
same,MIC50,Mucor racemosus [10],> 32 µg/mL
same,MIC50,Mucor racemosus [11],> 32 µg/mL
same,MIC50,Aspergillus fumigatus [12],> 32 µg/mL
same,MIC50,Aspergillus fumigatus [13],> 32 µg/mL
same,MFC,Candida albicans [15],> 16 µg/mL
C[C@@H]1[C@H](O)[C@@H](C)/C=C/C=C/C=C/C=C/C=C/C=C/C=C/[C@H](O[C@@H]2O[C@H](C)[C@@H](O)[C@H](N)[C@@H]2O)C[C@@H]2O[C@](O)(C[C@@H](O)C[C@@H](O)[C@H](O)CC[C@@H](O)C[C@@H](O)CC(=O)O[C@H]1C)C[C@H](O)[C@H]2C(=O)O,Activity,Cell membrane [35],Active
CCC(C)n1ncn(-c2ccc(N3CCN(c4ccc(OCC5COC(Cn6cncn6)(c6ccc(Cl)cc6Cl)O5)cc4)CC3)cc2)c1=O (stereo not drawn) [ITRACONAZOLE],MIC50,Mucor racemosus [10],1 µg/mL
same,MIC50,Mucor racemosus [11],1 µg/mL
same,MIC50,Aspergillus fumigatus [12],1 µg/mL
same,MIC50,Aspergillus fumigatus [13],> 32 µg/mL
